{"source": "paper PMC7357171", "about": "(Toxicological Sciences, 2020)", "key": {"[1]": {"test_system": "MAO-B", "settings": "ref Gnerre et al., 2000; cited from earlier work"}, "[2]": {"biological_target": "carbonic anhydrase type I", "settings": "read-out: Ki used as PoD for the MoS calculation; ref PubChem; cited from earlier work"}, "[3]": {"biological_target": "T1, MAO-A (Rattus norvegicus, UniProt P21396)", "T1 sequence (P21396 1-526)": "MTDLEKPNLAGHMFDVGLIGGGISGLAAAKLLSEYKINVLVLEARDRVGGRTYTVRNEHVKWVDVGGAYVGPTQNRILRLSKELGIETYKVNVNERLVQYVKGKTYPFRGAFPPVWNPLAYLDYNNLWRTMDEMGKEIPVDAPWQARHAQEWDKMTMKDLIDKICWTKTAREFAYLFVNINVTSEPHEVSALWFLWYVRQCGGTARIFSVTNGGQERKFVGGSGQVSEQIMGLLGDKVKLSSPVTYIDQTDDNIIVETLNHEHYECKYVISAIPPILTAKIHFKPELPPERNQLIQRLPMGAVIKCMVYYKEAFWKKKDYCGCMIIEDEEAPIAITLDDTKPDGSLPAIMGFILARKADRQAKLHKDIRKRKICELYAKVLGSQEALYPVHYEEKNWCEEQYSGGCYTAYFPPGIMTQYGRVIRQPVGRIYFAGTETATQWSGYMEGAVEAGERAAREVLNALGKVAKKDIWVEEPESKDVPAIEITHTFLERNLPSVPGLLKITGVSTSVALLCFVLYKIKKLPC", "settings": "ref Gnerre et al., 2000; cited from earlier work"}, "[4]": {"test_system": "HepaRG 3D", "experiment": "High-throughput transcriptomics", "format": "cell-based, human"}, "[5]": {"test_system": "LPS-stimulated PBMC and endothelial cell coculture system", "experiment": "BioMap Diversity 8 Panel, LPS system", "format": "cell-based, human", "settings": "up to 500 µM"}, "[6]": {"biological_target": "carbonic anhydrase type IV", "settings": "read-out: Ki used as PoD for the MoS calculation; ref PubChem; cited from earlier work"}, "[7]": {"test_system": "MCF7", "experiment": "High-throughput transcriptomics"}, "[8]": {"test_system": "HepaRG 2D", "experiment": "High-throughput transcriptomics"}, "[9]": {"settings": "assessment factor of 100 on the animal NOAEL; ref EFSA, 2008; cited from earlier work"}, "[10]": {"test_system": "mES reporter cell lines", "experiment": "ToxTracker genotoxicity assay", "format": "cell-based"}, "[11]": {"biological_target": "T1, MAO-A", "experiment": "SafetyScreen44 MAO-A", "format": "binding", "settings": "coumarin 10 µM"}, "[12]": {"test_system": "SAg-stimulated PBMC and endothelial cell coculture system", "experiment": "BioMap Diversity 8 Panel, SAg system", "format": "cell-based, human", "settings": "up to 500 µM"}, "[13]": {"test_system": "8 cell-based human primary cell cultures (or cocultures)", "settings": "ref ToxCast, CompTox Chemicals Dashboard; cited from earlier work"}, "[14]": {"test_system": "HepaRG 3D", "experiment": "In vitro cell stress panel in HepaRG 3D spheroids", "format": "cell-based, human"}, "[15]": {"experiment": "Human cryopreserved hepatocyte stability assay", "format": "in vitro ADME", "settings": "cryopreserved hepatocytes"}, "[16]": {"test_system": "HepG2"}, "[17]": {"experiment": "Determination of the margin of safety", "settings": "for Preliminary MoS (range): PoDs of the in vitro bioactivity characterization step"}, "[18]": {"biological_target": "T2, CYP2A6 (Homo sapiens, UniProt P11509)", "T2 sequence (P11509 1-494)": "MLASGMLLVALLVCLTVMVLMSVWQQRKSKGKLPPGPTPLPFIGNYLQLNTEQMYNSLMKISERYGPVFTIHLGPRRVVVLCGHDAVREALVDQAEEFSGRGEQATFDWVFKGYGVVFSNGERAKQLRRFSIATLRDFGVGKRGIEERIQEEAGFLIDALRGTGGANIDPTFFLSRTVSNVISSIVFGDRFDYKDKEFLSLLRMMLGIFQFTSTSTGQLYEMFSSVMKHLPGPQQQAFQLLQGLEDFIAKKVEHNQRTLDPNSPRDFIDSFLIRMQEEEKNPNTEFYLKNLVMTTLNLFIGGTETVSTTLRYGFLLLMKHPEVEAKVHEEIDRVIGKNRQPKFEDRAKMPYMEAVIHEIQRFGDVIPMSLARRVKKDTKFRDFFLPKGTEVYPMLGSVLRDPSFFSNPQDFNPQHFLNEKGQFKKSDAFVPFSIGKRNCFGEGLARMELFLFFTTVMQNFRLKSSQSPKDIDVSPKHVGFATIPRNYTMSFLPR", "experiment": "Compound stability in expressed human CYP2A6", "settings": "heterologously expressed (recombinant) CYP2A6"}}, "note": "Marks after values point to notes of the source that are not given here."}
{"smiles": "O=c1ccc2ccccc2o1", "note": "[Coumarin]", "values": [{"measurement": "IC50", "setting": "[1]", "value": 40.7, "unit": "µM"}, {"measurement": "Ki", "setting": "[2]", "value": 3, "unit": "µM"}, {"measurement": "IC50", "setting": "[3]", "value": 12, "unit": "µM"}, {"measurement": "summarized PoDs after 24 h exposure (range)", "setting": "[4]", "value": "41 to 55", "unit": "µM"}, {"measurement": "PoDT, BMD of Reactome pathway with lowest BMD that meets significance threshold criteria", "setting": "[4]; 24 h", "value": 41, "unit": "µM"}, {"measurement": "number of genes in gene-level tests", "setting": "[4]; 24 h", "value": "(9 genes)"}, {"measurement": "PoDT, Mean BMD of genes between 25th and 75th percentile", "setting": "[4]; 24 h, fewer than 20 genes (*)", "value": "46* µM"}, {"measurement": "PoDT, 20 pathways with the lowest BMD Reactome", "setting": "[4]; 24 h, fewer than 20 pathways (*)", "value": "46* µM"}, {"measurement": "number of genes in gene-level tests", "setting": "[4]; 24 h, listed as coumarin", "value": 9, "unit": "genes"}, {"measurement": "number of pathways in pathway-level tests", "setting": "[4]; 24 h, listed as coumarin", "value": 2, "unit": "pathways"}, {"measurement": "biomarkers affected", "setting": "[5]", "value": "No biomarkers were affected"}, {"measurement": "Ki", "setting": "[6]", "value": 62.3, "unit": "µM"}, {"measurement": "PoDT, Mean BMD of genes between 25th and 75th percentile", "setting": "[7]; MCF7, 24 h", "value": 1, "unit": "µM"}, {"measurement": "cytotoxicity (> 20%)", "setting": "[7]; MCF7, up to the maximum tested concentration, data not shown", "value": "No significant cytotoxicity"}, {"measurement": "cytotoxicity (> 20%)", "setting": "[8]; 2D HepaRG, up to the maximum tested concentration, data not shown", "value": "No significant cytotoxicity"}, {"measurement": "PoDT, Mean BMD of genes between 25th and 75th percentile", "setting": "[8]; HepaRG 2D, 24 h", "value": 59, "unit": "µM"}, {"measurement": "number of pathways in pathway-level tests", "setting": "[8]; HepaRG 2D, 24 h", "value": 17, "unit": "pathways"}, {"measurement": "tolerable daily intake (TDI) for coumarin in foods", "setting": "[9]", "value": "0 to 0.1", "unit": "mg/kg/day"}, {"measurement": "Blvrb-GFP oxidative stress marker", "setting": "[10]; presence of S9, 24 h", "value": "activated"}, {"measurement": "Btg2-GFP reporter (p53 response) activation", "setting": "[10]; presence of S9, 24 h", "value": "weak activation"}, {"measurement": "Srxn1-GFP oxidative stress marker", "setting": "[10]; presence of S9, 24 h", "value": "activated"}, {"measurement": "cytotoxicity", "setting": "[10]; up to 1000 µM, absence or presence of S9", "value": "No significant cytotoxicity"}, {"measurement": "Srxn1-GFP oxidative stress reporter", "setting": "[10]; without metabolic activation, 24 h", "value": "induced"}, {"measurement": "Mean % inhibition, Specific binding", "setting": "[11]", "value": 22, "unit": "%"}, {"measurement": "biomarkers affected", "setting": "[12]", "value": "No biomarkers were affected"}, {"measurement": "concentration-response in BioMap data generated during the ToxCast program", "setting": "[13]", "value": "No concentration-response"}, {"measurement": "biomarker changes at 24 h", "setting": "[14]", "value": "no changes"}, {"measurement": "half-life", "setting": "[15]", "value": 13, "unit": "min"}, {"measurement": "PoDT, 20 pathways with the lowest BMD Reactome", "setting": "[16]; HepG2, 24 h", "value": 44, "unit": "µM"}, {"measurement": "PoDT, BMD of Reactome pathway with lowest BMD that meets significance threshold criteria", "setting": "[16]; HepG2, 24 h", "value": 31, "unit": "µM"}, {"measurement": "PoDT, Mean BMD of genes between 25th and 75th percentile", "setting": "[16]; HepG2, 24 h", "value": 17, "unit": "µM"}, {"measurement": "number of genes in gene-level tests", "setting": "[16]; HepG2, 24 h", "value": "(1570 genes)"}, {"measurement": "number of pathways in pathway-level tests", "setting": "[16]; HepG2, 24 h", "value": "(308 pathways)"}, {"measurement": "cytotoxicity (> 20%)", "setting": "[16]; HepG2, up to the maximum tested concentration, data not shown", "value": "No significant cytotoxicity"}, {"measurement": "Body Lotion Min. 5th percentile MoS", "setting": "[17]; PubChem, Carbonic Anhydrase Type I", "value": 158}, {"measurement": "Preliminary MoS (range)", "setting": "[17]; body lotion", "value": "158-22048"}, {"measurement": "MoS (the 5th percentile), all PoDs", "setting": "[17]; face cream and body lotion", "value": "higher than 100"}, {"measurement": "Preliminary MoS (range)", "setting": "[17]; face cream", "value": "706-96738"}, {"measurement": "half-life at 1 µM", "setting": "[18]", "value": "< 5", "unit": "min"}]}
